These results are taken from patent US5141943A, “5-benzyl barbiturate derivatives” (Brown University Research Foundation, priority 1990, dated 1992).

Values after ≈ are worked out from the molar mass of the structure shown. Read-outs that look alike come from different tables or passages of the source.

A short description of series [1]: Solubility in water at room temperature. In kind it is physicochemical.
Series [2] deals with uridine phosphorylase. The note with it: *calculated from Niedzwicki, J. G. et al.; read-out: APP Ki (apparent inhibition constant); cited from earlier work.
Series [3] has as its system uridine phosphorylase. As to the kind of experiment: Inhibition of uridine phosphorylase (mouse liver cytosol, uridine substrate). In kind it is biochemical. Conditions: for uridine phosphorylase inhibition compared with uracil / acyclouridine counterpart or analogue: comparison in words from Table I; for Ki: uridine 1 mM, pH 8, 37° C., 30 min, Dixon plots, read-out: APP Ki (apparent inhibition constant). On the procedure: The activity of the 5-benzyl barbiturates of this invention as inhibitors of uridine phosphorylase was measured essentially following the procedure of Naguib et al. (vol. 36, Biochem. Pharmac. pp. 2195-2201 (1987)), the disclosure of which is incorporated herein by reference. An abridged description of the protocol is described below.
Mouse livers for these experiments were obtained from Swiss Albino (CDl) mice (Charles River Laboratories, Boston, Mass.). The mice were killed by cervical dislocation, and the livers removed and washed with ice-cold normal saline (0.9%) before any further manipulation.
The saline solution was wiped off the organs with tissue paper, and the organs weighed and then cut into smaller pieces in ice-cold homogenization buffer (3:1, v/w) containing 20 mM potassium phosphate (pH 8), 1 mM EDTA, and 1 mM mercaptoethanol. The livers were then homogenized with a polytron homogenizer (Brinkman), and the homogenates centrifuged at 105,000 g for 1 hr at 4°. The supernatant fluids (cytosol) were collected and used as the enzyme source.
The assay mixture contained 20 mM potassium phosphate (pH 8), 1 mM EDTA, 1 mM mercaptoethanol, substrate (uridine, 9 mCi/mmol) and 40 μl of enzyme preparation in a final volume of 80 μl. Under these conditions the activity was linear with time and amount of enzyme. Apparent Ki values were estimated from Dixon plots (1/v vs[I]) of the data by a computer program with least squares fitting, using uridine (1 mM) and five different concentrations of the inhibitor within the range of 0.0625 μM and 1.0 μM.
Incubation was carried out at 37° C., for 30 min. The reaction was terminated by immersing the reaction tubes (1 ml Eppendorf tubes) in boiling water for 1 min. and then freezing the reaction tubes for at least 20 min. Proteins were removed by centrifugation, and 5 μl of the supernatant fluid spotted on silica gel TLC plates which had been prespotted with 5 μl of a standard mixture of 10 mM each uridine and uracil. The plates were then developed in a mixture of chloroform and methanol (90:10, v/v). Uridine and uracil were identified by UV quenching. (Rf values for uridine and uracil are 0.09 and 0.39, respectively.) Spots were then cut out and counted in 20 ml of Omnifluor-based scintillant.
Protein concentrations were determined by the method of Bradford, (Bradford, M. M., vol. 72, Analyt. Biochem. p. 248 (1976)) as described by the Bio-Rad Laboratories (Bio-Rad Laboratories, Bulletin 1069, Bio-Rad Laboratories, Richmond, Calif. (1979)), using bovine […] as a standard.

For series [4] the following is noted: prolonged AZT administration, or high doses of uridine (background); cited from earlier work.
Series [5] deals with human bone marrow progenitor cells (HBMP). Conditions: Somadossi et al. 1988; cited from earlier work.
For series [6] the following is noted: in water at room temperature; acyclouridines of the art (background); cited from earlier work.
Setting [7] is: water, in water, at room temperature, read-out: SOL. (solubility).

As a reminder, the solubility is the dissolved amount per volume that the medium holds. On to `O=c1[nH]cc(Cc2ccccc2)c(=O)[nH]1` [BU], for which the solubility in series [1] (water) is at most 1000 µM. Also, the Ki on uridine phosphorylase [2] is 54 µM.
Consider `O=C1NC(=O)N(COCCO)C(=O)C1Cc1cccc(OCc2ccccc2)c1` (centres unmarked) [BBAB, 5-benzyloxybenzyl-1-[(1-hydroxy-2-ethoxy)methyl] barbiturate], for which, in the series with uridine phosphorylase [3], the “uridine phosphorylase inhibition compared with uracil / acyclouridine counterpart or analogue” value was “further improves inhibition” and the Ki is 0.8 µM. The “water solubility compared with acyclouridines” value in series [1] (in water, at room temperature) is on record as “significantly greater than that of the acyclouridines”. Moreover, the solubility in series [1] (setting [7]) was at least 3000 µM.
Consider `Cc1cn([C@H]2C[C@H](N=[N+]=[N-])[C@@H](CO)O2)c(=O)[nH]c1=O` [AZT, 3'-azido-3'-deoxythymidine], for which the toxic side effects entry in series [4] was “suppression of bone marrow growth in the patient”.
Take `O=c1ccn([C@@H]2O[C@H](CO)[C@@H](O)[C@H]2O)c(=O)[nH]1` [uridine]: in series [5], the “reversal of toxic effects of AZT” value is recorded as “can reverse the toxic effects of AZT in human bone marrow progenitor cells (HBMP)”. In series [4], the toxic side effects entry was “toxic side effects, such as phlebitis and pyrogenic reactions”.
On to `O=c1[nH]c(=O)n(COCCO)cc1Cc1cccc(OCc2ccccc2)c1` [BBAU, 5-benzyl-oxybenzyl-acyclouridine], for which, at uridine phosphorylase [3], the Ki stood at 1.1 µM. In series [1] (water), this compound had a solubility of at most 1000 µM. In series [6], the solubility in water entry is “about 1 mM”.
In the case of `COc1cccc(CC2C(=O)NC(=O)N(COCCOC(C)=O)C2=O)c1` (centres unmarked) [MBCAB, 5-Methoxybenzylacetyl acyclo barbiturate], the Ki on uridine phosphorylase [3] was found to be 1.9 µM. The solubility in series [1] (setting [7]) was above 3000 µM.
Take `O=C1CC(=O)NC(=O)N1` [Barbiturate, barbituric acid]: at uridine phosphorylase [3], the Ki is around 1500 µM. The solubility in series [1] (in water, at room temperature, read-out: SOL. (solubility)) was above 3000 µM.
Take `O=C1NC(=O)C(Cc2cccc(OCc3ccccc3)c2)C(=O)N1` [BBB, 5-benzyloxybenzyl barbiturate]: in the series on uridine phosphorylase [3], the “uridine phosphorylase inhibition compared with uracil / acyclouridine counterpart or analogue” value is given as “significantly stronger uridine phosphorylase inhibitor than BBU” and the Ki was determined as 3 µM. Also, the solubility in series [1] (setting [7]) was above 3000 µM.
As to `O=c1[nH]c(=O)n(COCCO)cc1Cc1ccccc1` [BAU], the Ki at uridine phosphorylase [3] is 3.2 µM. In series [1] (water), this compound yielded a solubility of 1000 µM (≈ 276 µg/mL). Moreover, the solubility in water result in series [6] is “about 1 mM”.
`O=c1[nH]cc(Cc2cccc(OCc3ccccc3)c2)c(=O)[nH]1` [BBU, 5-benzyloxybenzyl uracil] came in with a solubility in series [1] (water) of at most 1000 µM.
For `O=C1NC(=O)C(Cc2ccccc2)C(=O)N1` [BB, 5-benzyl barbiturate], the Ki on uridine phosphorylase [3] came to 44 µM. Further, the solubility in series [1] (setting [7]) was above 3000 µM.
As for “5-benzyloxybenzylacetyl-1-[(1-hydroxy-2-ethoxy)methyl] barbiturate [BBCAB]”, the Ki on uridine phosphorylase [3] was found to be 2.6 µM. In addition, the “SOL. (solubility)” value in series [1] (in water, at room temperature) is above 3000 µM.
For `O=c1[nH]c(=O)n(COC(CO)CO)cc1Cc1cccc(OCc2ccccc2)c1` [HM-BBAU], the solubility in water entry in series [6] was “about 1 mM”.
For the compound `Nc1ccn([C@@H]2O[C@H](CO)[C@@H](O)[C@H]2O)c(=O)n1` [cytidine], the “reversal of toxic effects of AZT” value in series [5] is given as “to a lesser extent”.
